From US10221163B2 (priority 2015, dated 2019)
Read-outs that look alike come from different tables or passages of the source.

What was measured:
VIM-1 = VIM-1 (Pseudomonas aeruginosa (strain ATCC 15692 / DSM 22644 / CIP 104116 / JCM 14847 / LMG 12228 / 1C / PRS 101 / PAO1), UniProt A0A0F7KYQ8); experiment: biochemical; details: CCF2-FA substrate, 30 pM enzyme, 2 hours at 25° C.
How it was run: (§1)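 Fluorescence assay, CCF2-FA substrate (cephalosporin core linking 7-hydroxycoumarin to fluorescein); inhibitor + MBL + substrate, 2 h, 25° C. IC50 by 4-parameter fit, semi-log plot.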

[1] = tested on: Pseudomonas aeruginosa efflux+ (MB9798), IMP-1; assay type: cell-based; details: concentration restoring susceptibility to imipenem at 2 μg/mL in the presence of a class A, C, D serine β-lactamase inhibitor closely related to relebactam
How it was run: (§2)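 P. aeruginosa PAO1-derived IMP-1 strains, efflux+ MB9798 and efflux− MB9799, tested by standard microbroth MIC with imipenem and/or ceftazidime fixed, usually at CLSI breakpoint, plus fixed class A/C β-lactamase inhibitor against AmpC. Inhibitor titrated; concentration restoring susceptibility recorded; MB9798/MB9799 fold difference indicates efflux.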

[2] = tested on: Pseudomonas aeruginosa MB9798 vs MB9799; details: ratio MITC95 PA_9798/MITC95 PA_9799
How it was run: as §2

[3] = tested on: Escherichia coli expressing NDM-1 (CLB30005, CLB30016); assay type: cell-based; details: with imipenem 1 μg/ml; 95% inhibition of bacterial growth
How it was run: (§3)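 Clinical isolates (E. coli NDM-1, S. marcescens IMP-1, K. pneumoniae VIM-1) were diluted 1:100 from saline suspension into 1.1×CAMHB and exposed to test compound with imipenem at 1 μg/ml. Plates were incubated at 35° C for 22 hours to 24 hours, and growth was read by absorbance.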

[4] = tested on: Klebsiella pneumoniae expressing VIM-1 (IHMA599644); assay type: cell-based; details: with imipenem 1 μg/ml; 95% inhibition of bacterial growth
How it was run: as §3

[5] = tested on: Serratia marcescens expressing IMP-1 (CL5741); assay type: cell-based; details: with imipenem 1 μg/ml; 95% inhibition of bacterial growth
How it was run: as §3

[6] = tested on: Pseudomonas aeruginosa efflux− (MB9799), IMP-1; assay type: cell-based; details: concentration restoring susceptibility to imipenem at 2 μg/mL in the presence of a class A, C, D serine β-lactamase inhibitor closely related to relebactam
How it was run: as §2

NDM-1 = NDM-1 (Klebsiella pneumoniae, UniProt C7C422); experiment: biochemical; assay type: biochemical; details: fluorescence assay, CCF2-FA substrate, 1 pM enzyme, 2 hours at 25° C.; read-out: NDM-1 IC50
How it was run: as §1

IMP-1 = IMP-1 (Serratia marcescens, UniProt P52699); experiment: biochemical; assay type: biochemical; details: fluorescence assay, CCF2-FA substrate, 2 pM enzyme, 2 hours at 25° C.; read-out: IMP-1 IC50
How it was run: as §1

[7] = fluorescence assay, read-out: VIM-1 IC50

Chain of IMP-1 (P52699 whole entry, looked up, species assumed): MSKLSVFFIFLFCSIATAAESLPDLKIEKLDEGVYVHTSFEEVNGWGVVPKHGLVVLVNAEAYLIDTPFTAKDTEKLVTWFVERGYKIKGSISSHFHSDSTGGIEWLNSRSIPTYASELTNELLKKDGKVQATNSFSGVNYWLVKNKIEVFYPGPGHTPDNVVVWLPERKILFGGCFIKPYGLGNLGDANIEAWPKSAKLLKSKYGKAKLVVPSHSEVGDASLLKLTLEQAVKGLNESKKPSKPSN
Chain of NDM-1 (C7C422 whole entry, looked up, species assumed): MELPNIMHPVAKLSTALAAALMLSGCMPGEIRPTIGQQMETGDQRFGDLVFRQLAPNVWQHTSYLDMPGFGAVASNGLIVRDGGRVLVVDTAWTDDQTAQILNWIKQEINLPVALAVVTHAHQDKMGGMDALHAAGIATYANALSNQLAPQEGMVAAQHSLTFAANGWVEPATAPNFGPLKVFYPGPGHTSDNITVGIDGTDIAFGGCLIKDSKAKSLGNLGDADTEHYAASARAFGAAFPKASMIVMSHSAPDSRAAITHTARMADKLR

CN1CCC(NS(=O)(=O)c2ccc(-c3cccc4sc(N)nc34)c(-c3nnn[nH]3)c2S(N)(=O)=O)C1 (stereo not drawn) [Example 53, 4-(2-amino-1,3-benzothiazol-4-yl)-N1-(1-methylpyrrolidin-3-yl)-3-(1H-tetrazol-5-yl)benzene-1,2-disulfonamide]
IC50 (VIM-1; [7]): 0.192 nM
P. aeruginosa expressing IMP-1, efflux + (MB9798) MITC95 [1]: 1.563 µM
Efflux ratio [2]: 1.00
Escherichia coli expressing NDM-1 (CLB30016) MITC95 [3]: 3.125 µM
Klebsiella pneumoniae expressing VIM-1 (IHMA599644) MITC95 [4]: 3.125 µM
Serratia marcescens expressing IMP-1 (CL5741) MITC95 [5]: 1.563 µM
P. aeruginosa expressing IMP-1, efflux − (MB9799) MITC95 [6]: 1.563 µM
IC50 (NDM-1): 0.0415 nM
IC50 (IMP-1): 0.298 nM

CN1CCC(N(C)S(=O)(=O)c2ccc(-c3cccc4sc(N)nc34)c(-c3nnn[nH]3)c2S(N)(=O)=O)C1 (stereo not drawn) [Example 54, 4-(2-amino-1,3-benzothiazol-4-yl)-N1-methyl-N1-(1-methylpyrrolidin-3-yl)-3-(1H-tetrazol-5-yl)benzene-1,2-disulfonamide]
IC50 (VIM-1; [7]): 3.64 nM
P. aeruginosa expressing IMP-1, efflux + (MB9798) MITC95 [1]: 6.25 µM
Efflux ratio [2]: 2.00
Escherichia coli expressing NDM-1 (CLB30016) MITC95 [3]: 6.25 µM
Klebsiella pneumoniae expressing VIM-1 (IHMA599644) MITC95 [4]: 6.25 µM
Serratia marcescens expressing IMP-1 (CL5741) MITC95 [5]: 3.125 µM
P. aeruginosa expressing IMP-1, efflux − (MB9799) MITC95 [6]: 3.125 µM
IC50 (NDM-1): 0.19 nM
IC50 (IMP-1): 1.93 nM

Nc1nc2c(-c3ccc(S(=O)(=O)N4CCC(N)(CO)C4)c(S(N)(=O)=O)c3-c3nnn[nH]3)cccc2s1 (stereo not drawn) [Example 55, 3-(2-amino-1,3-benzothiazol-4-yl)-6-{[3-amino-3-(hydroxymethyl)pyrrolidin-1-yl]sulfonyl}-2-(1H-tetrazol-5-yl)benzenesulfonamide]
IC50 (VIM-1; [7]): 1.46 nM
P. aeruginosa expressing IMP-1, efflux + (MB9798) MITC95 [1]: 3.125 µM
Efflux ratio [2]: 1.00
Escherichia coli expressing NDM-1 (CLB30016) MITC95 [3]: 3.125 µM
Klebsiella pneumoniae expressing VIM-1 (IHMA599644) MITC95 [4]: 6.25 µM
Serratia marcescens expressing IMP-1 (CL5741) MITC95 [5]: 3.125 µM
P. aeruginosa expressing IMP-1, efflux − (MB9799) MITC95 [6]: 3.125 µM
IC50 (NDM-1): 0.51 nM
IC50 (IMP-1): 0.86 nM

CCC1(NS(=O)(=O)c2ccc(-c3cccc4sc(N)nc34)c(-c3nnn[nH]3)c2S(N)(=O)=O)CCNC1 (stereo not drawn) [Example 56, 4-(2-amino-1,3-benzothiazol-4-yl)-N1-(3-ethylpyrrolidin-3-yl)-3-(1H-tetrazol-5-yl)benzene-1,2-disulfonamide]
IC50 (VIM-1; [7]): 0.245 nM
P. aeruginosa expressing IMP-1, efflux + (MB9798) MITC95 [1]: 1.563 µM
Efflux ratio [2]: 1.00
Escherichia coli expressing NDM-1 (CLB30016) MITC95 [3]: 1.563 µM
Klebsiella pneumoniae expressing VIM-1 (IHMA599644) MITC95 [4]: 3.125 µM
Serratia marcescens expressing IMP-1 (CL5741) MITC95 [5]: 3.125 µM
P. aeruginosa expressing IMP-1, efflux − (MB9799) MITC95 [6]: 1.563 µM
IC50 (NDM-1): 0.0519 nM
IC50 (IMP-1): 0.342 nM

CC1(NS(=O)(=O)c2ccc(-c3cccc4sc(N)nc34)c(-c3nnn[nH]3)c2S(N)(=O)=O)CCCNC1 (stereo not drawn) [Example 57, 4-(2-amino-1,3-benzothiazol-4-yl)-N1-(3-methylpiperidin-3-yl)-3-(1H-tetrazol-5-yl)benzene-1,2-disulfonamide]
IC50 (VIM-1; [7]): 0.355 nM
P. aeruginosa expressing IMP-1, efflux + (MB9798) MITC95 [1]: 3.125 µM
Efflux ratio [2]: 1.00
Escherichia coli expressing NDM-1 (CLB30016) MITC95 [3]: 3.125 µM
Klebsiella pneumoniae expressing VIM-1 (IHMA599644) MITC95 [4]: 3.125 µM
Serratia marcescens expressing IMP-1 (CL5741) MITC95 [5]: 6.25 µM
P. aeruginosa expressing IMP-1, efflux − (MB9799) MITC95 [6]: 3.125 µM
IC50 (NDM-1): 0.0853 nM
IC50 (IMP-1): 0.554 nM

Nc1nc2c(-c3ccc(S(=O)(=O)N[C@@H]4CNC[C@@H]4F)c(S(N)(=O)=O)c3-c3nnn[nH]3)cccc2s1 [Example 58, 4-(2-amino-1,3-benzothiazol-4-yl)-N1-[(3R,4S)-4-fluoropyrrolidin-3-yl]-3-(1H-tetrazol-5-yl)benzene-1,2-disulfonamide]
IC50 (VIM-1; [7]): 0.404 nM
P. aeruginosa expressing IMP-1, efflux + (MB9798) MITC95 [1]: 1.563 µM
Efflux ratio [2]: 1.00
Escherichia coli expressing NDM-1 (CLB30016) MITC95 [3]: 1.563 µM
Klebsiella pneumoniae expressing VIM-1 (IHMA599644) MITC95 [4]: 3.125 µM
Serratia marcescens expressing IMP-1 (CL5741) MITC95 [5]: 1.563 µM
P. aeruginosa expressing IMP-1, efflux − (MB9799) MITC95 [6]: 1.563 µM
IC50 (NDM-1): 0.0686 nM
IC50 (IMP-1): 0.759 nM

Nc1nc2c(-c3ccc(S(=O)(=O)N[C@H]4CNC[C@@H]4F)c(S(N)(=O)=O)c3-c3nnn[nH]3)cccc2s1 [Example 59, 4-(2-amino-1,3-benzothiazol-4-yl)-N1-[(3S,4S)-4-fluoropyrrolidin-3-yl]-3-(1H-tetrazol-5-yl)benzene-1,2-disulfonamide]
IC50 (VIM-1; [7]): 0.309 nM
P. aeruginosa expressing IMP-1, efflux + (MB9798) MITC95 [1]: 1.563 µM
Efflux ratio [2]: 1.00
Escherichia coli expressing NDM-1 (CLB30016) MITC95 [3]: 1.563 µM
Klebsiella pneumoniae expressing VIM-1 (IHMA599644) MITC95 [4]: 3.125 µM
Serratia marcescens expressing IMP-1 (CL5741) MITC95 [5]: 1.563 µM
P. aeruginosa expressing IMP-1, efflux − (MB9799) MITC95 [6]: 1.563 µM
IC50 (NDM-1): 0.0357 nM
IC50 (IMP-1): 0.558 nM

Nc1nc2c(-c3ccc(S(=O)(=O)N[C@H]4CCNC4)c(S(N)(=O)=O)c3-c3nnn[nH]3)cccc2s1 [Example 60, 4-(2-amino-1,3-benzothiazol-4-yl)-N1-[(3S)-pyrrolidin-3-yl]-3-(1H-tetrazol-5-yl)benzene-1,2-disulfonamide]
IC50 (VIM-1; [7]): 0.236 nM
P. aeruginosa expressing IMP-1, efflux + (MB9798) MITC95 [1]: 0.7813 µM
Efflux ratio [2]: 0.50
Escherichia coli expressing NDM-1 (CLB30016) MITC95 [3]: 3.125 µM
Klebsiella pneumoniae expressing VIM-1 (IHMA599644) MITC95 [4]: 3.125 µM
Serratia marcescens expressing IMP-1 (CL5741) MITC95 [5]: 1.563 µM
P. aeruginosa expressing IMP-1, efflux − (MB9799) MITC95 [6]: 1.563 µM
IC50 (NDM-1): 0.0765 nM
IC50 (IMP-1): 0.679 nM

Nc1nc2c(-c3ccc(S(=O)(=O)N4CC[C@H](N)C4)c(S(N)(=O)=O)c3-c3nnn[nH]3)cccc2s1 [Example 61, 3-(2-amino-1,3-benzothiazol-4-yl)-6-{[(3S)-3-aminopyrrolidin-1-yl]sulfonyl}-2-(1H-tetrazol-5-yl)benzenesulfonamide]
IC50 (VIM-1; VIM-1 IC50, fluorescence assay): 1.44 nM
P. aeruginosa expressing IMP-1, efflux + (MB9798) MITC95 [1]: 1.563 µM
Efflux ratio [2]: 1.00
Escherichia coli expressing NDM-1 (CLB30016) MITC95 [3]: 3.125 µM
Klebsiella pneumoniae expressing VIM-1 (IHMA599644) MITC95 [4]: 3.125 µM
Serratia marcescens expressing IMP-1 (CL5741) MITC95 [5]: 3.125 µM
P. aeruginosa expressing IMP-1, efflux − (MB9799) MITC95 [6]: 1.563 µM
IC50 (NDM-1): 0.976 nM
IC50 (IMP-1): 1.47 nM

Nc1nc2c(-c3ccc(S(=O)(=O)N4CC[C@@H](N)C4)c(S(N)(=O)=O)c3-c3nnn[nH]3)cccc2s1 [Example 62, 3-(2-amino-1,3-benzothiazol-4-yl)-6-{[(3R)-3-aminopyrrolidin-1-yl]sulfonyl}-2-(1H-tetrazol-5-yl)benzenesulfonamide]
IC50 (VIM-1; VIM-1 IC50, fluorescence assay): 1.63 nM
P. aeruginosa expressing IMP-1, efflux + (MB9798) MITC95 [1]: 1.563 µM
Efflux ratio [2]: 1.00
Escherichia coli expressing NDM-1 (CLB30016) MITC95 [3]: 3.125 µM
Klebsiella pneumoniae expressing VIM-1 (IHMA599644) MITC95 [4]: 3.125 µM
Serratia marcescens expressing IMP-1 (CL5741) MITC95 [5]: 1.563 µM
P. aeruginosa expressing IMP-1, efflux − (MB9799) MITC95 [6]: 1.563 µM
IC50 (NDM-1): 0.843 nM
IC50 (IMP-1): 1.28 nM
